# Entries after “also recorded” stand apart in the source; their conditions may differ.
# What was measured:
# Format in all cases: in vivo, human
# healthy male volunteers [1] = assay: Blood glucose before meals, before/after exhaustive exercise at 80% VO2max; conditions: for blood glucose levels: exercise (DE), plasma, Mean, n = 15; for effect of supplementation on blood glucose metabolism before meals: exhaustive exercise at 80% VO2max, versus placebo
# Description: (§1) The present invention is based on supplementing cyclohexenone of Antrodia camphorata or placebo with no cyclohexenone of Antrodia camphorata to the subjects. The subjects were tested for the anti-fatigue function after supplementing cyclohexenone of Antrodia camphorata by measuring the amounts of fatigue indexes such as CPK, lactic acid, glucose, ammonia and free fatty acid before and after exhaustive exercise load at 80% VO2max.
# (§2) Subjects were randomized to receive either cyclohexenone of Antrodia camphorata or placebo. Placebo contained substances such as cornstarch but no cyclohexenone of Antrodia camphorata. A double-blind, cross-over method was performed in this study where neither the evaluator nor the subject knew the content of the test substances. Based on rules of order balance, each subject have to receive the following tests: relaxing and receiving placebo (PR), exercising and receiving placebo (PE), relaxing and receiving cyclohexenone of Antrodia camphorata (DR), and exercising and receiving cyclohexenone of Antrodia camphorata (DE). Each test was carried out for one week, and took one week off before the next test until all 4 tests were performed in each subject. The exercise was performed on a treadmill with the load intensity at the measured 80% VO2max (7.61±1.87) until exhausted. Subjects received cyclohexenone of Antrodia camphorata or placebo after exercise in the amount of 0.2 g/kg body weight per day. […] Blood was collected in anticoagulant (such as EDTA) containing collection tubes, and was centrifuged at 3000 g. for 10 min to collect the plasma. The fatigue indexes such as CPK, lactic acid, glucose, ammonia and free fatty acid were analyzed accordingly. The physiological and biochemical changes before and after exercise with different supplements were compared and shown as values of mean and standard error (Mean±SEM). […] The details for the biochemical analysis and results are described below:
# The measurement of blood glucose was performed with an automated blood analyzer Johnson & Johnson DT-600 II based on enzyme function and spectrophotometric method. Glucose oxidase was added into a defined amount of plasma for reaction, followed by addition of 4-aminoantipyrine and 1,7-dihydroxyphthalene. A red product was formed through function of peroxidase. The reactions are shown below:
# The absorbance at 555 nm was measured to obtain the concentration of blood glucose.
# healthy male volunteers [2] = assay: Creatine phosphate kinase (CPK) activity in plasma before/after exhaustive exercise at 80% VO2max; conditions: for creatine phosphate kinase levels: plasma, Mean, n = 15
# Description: as §1, §2
# The measurement of creatine phosphate kinase was performed with an automated blood analyzer Johnson & Johnson DT-60II based on enzyme function and spectrophotometric theory. Creatine phosphate […] was added into a defined amount of plasma to react, followed by addition of 4-aminoantipyrine and 1,7-dihydroxynaphthalene. A […] product was formed through peroxidase function. The absorbance at 680 nm was measured to obtain the concentration of creatine kinase.
# healthy male volunteers [3] = assay: Free fatty acid levels before/after exhaustive exercise at 80% VO2max; conditions: for levels of free fatty acid: plasma, Mean, n = 15; for effect of supplementation after exercise on metabolism of free fatty acid: exhaustive exercise at 80% VO2max, versus placebo
# Description: as §1, §2
# The measurement of free fatty acid level was performed based on enzyme function and spectrophotometric theory. Acyl CoA synthetase and acyl CoA oxidase were added into a defined amount of plasma for reaction. A purple product was formed through activities of peroxidase. The reactions are shown below:
# The absorbance at 550 nm was measured to obtain the concentration of free fatty acid.
# healthy male volunteers [4] = assay: Anti-fatigue test for cyclohexenone of Antrodia camphorata (fatigue indexes overall); conditions: after exhaustive exercising at 80% VO2max, indexes CPK, lactic acid, glucose, ammonia, free fatty acid
# Description: as §1
# Subjects were randomized to receive either cyclohexenone of Antrodia camphorata or placebo. Placebo contained substances such as cornstarch but no cyclohexenone of Antrodia camphorata. A double-blind, cross-over method was performed in this study where neither the evaluator nor the subject knew the content of the test substances. Based on rules of order balance, each subject have to receive the following tests: relaxing and receiving placebo (PR), exercising and receiving placebo (PE), relaxing and receiving cyclohexenone of Antrodia camphorata (DR), and exercising and receiving cyclohexenone of Antrodia camphorata (DE). […] The exercise was performed on a treadmill with the load intensity at the measured 80% VO2max (7.61±1.87) until exhausted. […] The fatigue indexes such as CPK, lactic acid, glucose, ammonia and free fatty acid were analyzed accordingly. […]
# [5] = listed as cyclohexenone from Antrodia camphorata
# [6] = listed as cyclohexenone of Antrodia camphorata
# [7] = Relax (DR), Post-exercise 0.5 h
# [8] = Relax (DR), Post-exercise 120 h
# [9] = Relax (DR), Post-exercise 168 h
# [10] = exercise (DE), Post-exercise 0 h
# [11] = exercise (DE), Post-exercise 0.5 h
# [12] = exercise (DE), Post-exercise 1 h
# [13] = exercise (DE), Post-exercise 2 h
# [14] = exercise (DE), Post-exercise 24 h
# [15] = exercise (DE), Post-exercise 48 h
# [16] = exercise (DE), Post-exercise 72 h
# [17] = exercise (DE), Post-exercise 120 h
# [18] = exercise (DE), Post-exercise 168 h
# [19] = exercise (DE), Prior to exercise
smiles,measurement,setting,value
"COC1=C(OC)C(O)C(C/C=C(\C)CC/C=C(\C)CCC=C(C)C)C(C)C1=O (stereo not drawn) [cyclohexenone, 4-hydroxy-2,3-dimethoxy-6-methyl-5(3,7,11-trimethyl-dodeca-2,6,10-trienyl)-cyclohex-2-enone]",blood glucose levels,healthy male volunteers [1]; Post-exercise 0 h,103.43 mg/dL
same,blood glucose levels,healthy male volunteers [1]; Post-exercise 0.5 h,88.71 mg/dL
same,blood glucose levels,healthy male volunteers [1]; Post-exercise 1 h,93.86 mg/dL
same,blood glucose levels,healthy male volunteers [1]; Post-exercise 2 h,101.07 mg/dL
same,blood glucose levels,healthy male volunteers [1]; Post-exercise 24 h,94.43 mg/dL
same,blood glucose levels,healthy male volunteers [1]; Post-exercise 48 h,89.21 mg/dL
same,blood glucose levels,healthy male volunteers [1]; Post-exercise 72 h,93.00 mg/dL
same,blood glucose levels,healthy male volunteers [1]; Post-exercise 120 h,93.29 mg/dL
same,blood glucose levels,healthy male volunteers [1]; Post-exercise 168 h,92.93 mg/dL
same,blood glucose levels,healthy male volunteers [1]; Prior to exercise,89.21 mg/dL
same,effect of supplementation on blood glucose metabolism before meals,healthy male volunteers [1]; [5],no effect
same,effect of supplementation on blood glucose metabolism before meals,healthy male volunteers [1]; [6],no significant difference
same,creatine phosphate kinase levels,"healthy male volunteers [2]; Relax (DR), Post-exercise 0 h",150.20 U/L
same,creatine phosphate kinase levels,healthy male volunteers [2]; [7],166.53 U/L
same,creatine phosphate kinase levels,"healthy male volunteers [2]; Relax (DR), Post-exercise 1 h",167.40 U/L
same,creatine phosphate kinase levels,"healthy male volunteers [2]; Relax (DR), Post-exercise 2 h",146.33 U/L
same,creatine phosphate kinase levels,"healthy male volunteers [2]; Relax (DR), Post-exercise 24 h",158.47 U/L
same,creatine phosphate kinase levels,"healthy male volunteers [2]; Relax (DR), Post-exercise 48 h",133.87 U/L
same,creatine phosphate kinase levels,"healthy male volunteers [2]; Relax (DR), Post-exercise 72 h",165.73 U/L
same,creatine phosphate kinase levels,healthy male volunteers [2]; [8],243.00 U/L
same,creatine phosphate kinase levels,healthy male volunteers [2]; [9],183.27 U/L
same,creatine phosphate kinase levels,"healthy male volunteers [2]; Relax (DR), Prior to exercise",167.27 U/L
same,creatine phosphate kinase levels,healthy male volunteers [2]; [10],259.57 U/L
same,creatine phosphate kinase levels,healthy male volunteers [2]; [11],221.86 U/L
same,creatine phosphate kinase levels,healthy male volunteers [2]; [12],232.93 U/L
same,creatine phosphate kinase levels,healthy male volunteers [2]; [13],208.07 U/L
same,creatine phosphate kinase levels,healthy male volunteers [2]; [14],332.50 U/L
same,creatine phosphate kinase levels,healthy male volunteers [2]; [15],244.00 U/L
same,creatine phosphate kinase levels,healthy male volunteers [2]; [16],193.86 U/L
same,creatine phosphate kinase levels,healthy male volunteers [2]; [17],193.86 U/L
same,creatine phosphate kinase levels,healthy male volunteers [2]; [18],204.83 U/L
same,creatine phosphate kinase levels,healthy male volunteers [2]; [19],226.64 U/L
same,effect of supplementation after exercise on creatine phosphate kinase levels,"healthy male volunteers [2]; exhaustive exercise at 80% VO2max, 0.2 g/kg body weight per day, versus placebo, listed as cyclohexenone from Antrodia camphorata",effectively decreases the muscular injury marker of creatine phosphate kinase levels; also recorded: significant effect (p<0.05) in metabolism of creatine phosphate kinase
same,levels of free fatty acid,"healthy male volunteers [3]; Relax (DR), Post-exercise 0 h",0.33 mM
same,levels of free fatty acid,healthy male volunteers [3]; [7],0.34 mM
same,levels of free fatty acid,"healthy male volunteers [3]; Relax (DR), Post-exercise 1 h",0.3 mM
same,levels of free fatty acid,"healthy male volunteers [3]; Relax (DR), Post-exercise 2 h",0.23 mM
same,levels of free fatty acid,"healthy male volunteers [3]; Relax (DR), Post-exercise 24 h",0.28 mM
same,levels of free fatty acid,"healthy male volunteers [3]; Relax (DR), Post-exercise 48 h",0.29 mM
same,levels of free fatty acid,"healthy male volunteers [3]; Relax (DR), Post-exercise 72 h",0.31 mM
same,levels of free fatty acid,healthy male volunteers [3]; [8],0.48 mM
same,levels of free fatty acid,healthy male volunteers [3]; [9],0.28 mM
same,levels of free fatty acid,"healthy male volunteers [3]; Relax (DR), Prior to exercise",0.38 mM
same,levels of free fatty acid,healthy male volunteers [3]; [10],0.91 mM
same,levels of free fatty acid,healthy male volunteers [3]; [11],0.6 mM
same,levels of free fatty acid,healthy male volunteers [3]; [12],0.61 mM
same,levels of free fatty acid,healthy male volunteers [3]; [13],0.59 mM
same,levels of free fatty acid,healthy male volunteers [3]; [14],0.41 mM
same,levels of free fatty acid,healthy male volunteers [3]; [15],0.28 mM
same,levels of free fatty acid,healthy male volunteers [3]; [16],0.44 mM
same,levels of free fatty acid,healthy male volunteers [3]; [17],0.3 mM
same,levels of free fatty acid,healthy male volunteers [3]; [18],0.32 mM
same,levels of free fatty acid,healthy male volunteers [3]; [19],0.34 mM
same,effect of supplementation after exercise on metabolism of free fatty acid,healthy male volunteers [3]; [5],did not affect the metabolism of free fatty acid
same,effect of supplementation after exercise on metabolism of free fatty acid,healthy male volunteers [3]; [6],no significant difference
same,anti-fatigue function (physiological fatigue after exercise),"healthy male volunteers [4]; listed as 4-hydroxy-2,3-dimethoxy-6-methyl-5(3,7,11-trimethyl-dodecca-2,6,10-trienyl)-cycl",can be used to delay physiological fatigue after exercise
same,anti-fatigue function (physiological fatigue after exercise),healthy male volunteers [4]; listed as cyclohexenone from Antrodia camphorea,delays physiological fatigue
